The source of these data is article PMC9832347 (2023).

SMILES strings stand for the structures.

The subject of this assay is Probe DNA / complementary DNA (porcine) hybrid (DNA, duplex) CTGATAGTAGATTTGTGATGACCGTAGCCC/CTACGGTCATCACAAATCTACTATCAG
As to the kind of experiment: differential pulse voltammetry, redox indicator on DNA electrode. The following applies: 30 μM 2b mixed with complementary DNA 1 × 10^-8 M; buffer wash; peak 1.45 μA; qualitative.

On to `CC1=NCCNC(C)(C)CC(C)=NCCNC(C)(C)C1.[Cu+2]`, for which the binding entry is on record as “yes”.
